One may read the Kd as the concentration at which binding is half-saturated. A word on the melting point: it is the temperature, or range, at which the solid turns liquid.

Molecules are shown by their SMILES. Like-named read-outs stand apart in the source and are kept apart here.

Series [1] deals with human IKCa1 channel (Homo sapiens, UniProt O15554). The experiment in a line: cell-based. Particulars: for IKCa1 inhibition compared with clotrimazole: refers to TABLE 8. As for the experimental part:
COS-7 cells, maintained in Dulbecco's modified Eagle's medium (DMEM) containing 10% heat-inactivated fetal calf serum, 4 mM L-glutamine and 1 mM Na^+ pyruvate, were transiently transfected with hlKCa1.
Electrophysiological experiments were carried out in the whole-cell configuration of the patch-clamp technique using an EPC-9 amplifier (HEKA Elektronik, Lambrecht Germany) interfaced to a computer running acquisition and analysis software (Pulse and Pulsfit; HEKA Elektronik). Pipettes were pulled from soft glass capillaries, coated with Sylgard (Dow-Corning, Midland, Mich.), and fire polished to resistances of 2.0–4.5 MΩ measured in the bath. COS-7 cells were trypsinized and plated on glass coverslips 3 h before measurement. […] To prevent activation of the native chloride channels in COS-7 cells an aspartate Ringer solution was used as an external solution (160 mM Na^+ aspartate, 4.5 mM KCl, 2 mM CaCl2, 1 mM MgCl2, 5 mM HEPES, adjusted to pH 7.4 with NaOH, with an osmolarity of 290–310 mosM). 200 ms voltage ramps from −120 mV to 40 mV every 10 s were used. The holding potential in all experiments was −80 mV. Series resistance compensation was not employed. The reduction of slope conductance at −80 mV was used to determine the Kd-value by fitting the values to the Hill equation with a Hill coefficient of unity.

Setting [2] is: read-out: Kd for block of IKCa1, hIKCa1 in COS-7 cells, reduction of slope conductance at −80 mV, 1 μM free Ca++ in pipette.
Setting [3] is: hIKCa1 in COS-7 cells, reduction of slope conductance at −80 mV, 1 μM free Ca++ in pipette.

Chain of human IKCa1 channel (O15554 whole entry): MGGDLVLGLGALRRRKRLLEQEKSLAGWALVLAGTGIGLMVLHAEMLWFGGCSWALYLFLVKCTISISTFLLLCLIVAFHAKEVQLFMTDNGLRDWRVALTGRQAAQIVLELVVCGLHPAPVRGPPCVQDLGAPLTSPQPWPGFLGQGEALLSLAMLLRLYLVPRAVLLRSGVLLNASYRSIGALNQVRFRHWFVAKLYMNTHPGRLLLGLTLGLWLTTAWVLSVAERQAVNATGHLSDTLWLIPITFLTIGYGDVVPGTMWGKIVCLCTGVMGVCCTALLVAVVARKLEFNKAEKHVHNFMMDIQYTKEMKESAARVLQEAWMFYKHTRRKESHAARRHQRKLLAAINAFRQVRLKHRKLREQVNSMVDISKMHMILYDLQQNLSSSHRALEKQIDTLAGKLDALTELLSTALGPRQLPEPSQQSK

In series [1], `Cc1csc(NC(c2ccccc2)(c2ccccc2)c2ccccc2Cl)n1` [Compound T79, N-[(2-Chlorophenyl)diphenylmethyl]-N-(4-methyl-1,3-thiazol-2yl)amine] yielded a dissociation constant (Kd) of 8 µM. Consider `COc1ccc(C(C#N)(c2ccc(OC)cc2)c2ccc(OC)cc2)cc1` [Compound T18], for which the Kd in series [1] (setting [2]) was determined as 40 µM. Regarding `COc1ccc(C(O)(c2ccccc2)c2ccc(OC)cc2)cc1` [Compound T15, Bis-(4-methoxyphenyl)phenyl methanol], the Kd in series [1] came to 10 µM.

Consider `Cc1ccn(C(c2ccccc2)(c2ccccc2)c2ccccc2Cl)n1` [Compound T63, 1-[(2-Chlorophenyl)diphenylmethyl]-3-methyl-1H-pyrazole], for which the equilibrium dissociation constant (Kd) in series [1] came to 1.1 µM.

Take `c1ccc(C(NCCN(CCNC(c2ccccc2)(c2ccccc2)c2ccccc2)CCNC(c2ccccc2)(c2ccccc2)c2ccccc2)(c2ccccc2)c2ccccc2)cc1` [Compound T20]: the “Kd for block of IKCa1” value in series [1] (setting [3]) is given as “No effect at 1 μM”. Regarding `Fc1ccccc1C(c1ccccc1)(c1ccccc1)n1cccn1` [Compound T46, 1-[(2-Fluorophenyl)diphenylmethyl]-1H-pyrazole], in series [1], the Kd came to 0.04 µM and the “IKCa1 inhibition compared with clotrimazole” value was “more potent inhibitors of IKCa1 channels than clotrimazole”. In the case of `Clc1ccccc1C(c1ccccc1)(c1ccccc1)n1cnnn1` [Compound T84, 1-[(2-Chlorophenyl)diphenylmethyl]-1H-1,2,3,4-tetrazole], in series [1], the dissociation constant Kd stood at 0.045 µM and the “IKCa1 inhibition compared with clotrimazole” value was “more potent inhibitors of IKCa1 channels than clotrimazole”. In the case of `Clc1ccccc1C(c1ccccc1)(c1ccccc1)n1cccc1`, the melting point worked out at 184 °C. `FC(F)(F)c1ccc(C(c2ccccc2)(c2ccccc2)n2cccn2)cc1` [Compound T60, 1-{Diphenyl[4-(trifluoromethyl)-phenyl]methyl}-1H-pyrazole] gave a Kd in series [1] of 1.5 µM.

Compound `FC(F)(F)c1ccccc1C(Nc1nccs1)(c1ccccc1)c1ccccc1` [Compound T72, N-Diphenyl[2-(trifluoromethyl)phenyl]-methyl-N-(1,3-thiazol-2yl)amine] came in with a Kd in series [1] of 25 µM.

On to `Clc1ccccc1C(c1ccccc1)(c1ccccc1)n1cnc2ccccc21` [Compound T85, 1-[(2-Chlorophenyl)diphenylmethyl]-1H-1,3-benzimidazole], for which the “Kd for block of IKCa1” value in series [1] (setting [3]) is recorded as “No effect at 1 μM”. The compound `c1ccc(C(c2ccccc2)(c2cccs2)n2ccnc2)cc1` [Compound T37, 1-[Diphenyl(2-thienyl)methyl]-1H-imidazole] registered a Kd in series [1] of 1 µM. Same read-out and setting: the result for `OC(c1ccccc1)(c1ccc(F)cc1)c1cccs1` (stereo not shown) [Compound T14, (4-Fluorophenyl)(2-thienyl)phenyl methanol] reads 0.8 µM. Same read-out and setting: for `FC(F)(F)c1ccn(C(c2ccccc2)(c2ccccc2)c2ccccc2C(F)(F)F)n1` [Compound T59, 1-{Diphenyl[2-(trifluoromethyl)-phenyl]methyl}-3-(trifluoromethyl)-1H-pyrazole] the value was 25 µM. As to `O=C1c2ccccc2C(=O)N1C(c1ccccc1)(c1ccccc1)c1ccccc1Cl` [Compound T71, 2-[(2-Chlorophenyl)diphenylmethyl]-1H-isoindole-1,3(2H)-dione], the “Kd for block of IKCa1” value in series [1] (setting [3]) is given as “No effect at 10 μM”. Compound `c1ccc(C(c2ccccc2)(c2cccs2)n2cccn2)cc1` [Compound T38, 1-[Diphenyl(2-thienyl)methyl]-1H-pyrazole] showed a Kd in series [1] of 1.1 µM. The same measure, in the same setting: for `COc1ccc(C(O)(c2ccc(OC)cc2)c2ccc(OC)cc2)cc1` [Compound T16, Tris-(4-methoxyphenyl) methanol] the value was 10 µM.

`COc1ccc(C(c2ccc(OC)cc2)(c2ccc(OC)cc2)n2cccn2)cc1` [Compound T19, 1-[Tris(4-methoxyphenyl)methyl]-1H-pyrazole]: in series [1] (setting [3]), the “Kd for block of IKCa1” value is given as “No effect at 1 μM”. Regarding `OC(c1ccccc1)(c1ccccc1)c1cccc(C(F)(F)F)c1` [Compound T56, Diphenyl(3-trifluoromethylphenyl) methanol], in series [1], the affinity, expressed as Kd, was 0.65 µM. In the case of `COc1ccc(C(C#N)(c2ccccc2)c2ccc(OC)cc2)cc1` [Compound T17], the Kd in series [1] (setting [2]) came to 35 µM. In turn, `Fc1ccccc1C(Nc1nccs1)(c1ccccc1)c1ccccc1` [Compound T78, N-[(2-Fluorophenyl)diphenylmethyl]-N-(1,3-thiazol-2yl)amine] had an equilibrium dissociation constant (Kd) in series [1] of 12 µM. In series [1], `Clc1ccc(C(c2ccccc2)(c2ccccc2)n2cccn2)cc1` [Compound T13, 1[(4-Chlorophenyl)diphenylmethyl]-1H-pyrazole] returned a Kd of 0.09 µM. Regarding `FC(F)(F)c1ccn(C(c2ccccc2)(c2ccccc2)c2ccccc2Cl)n1` [Compound T65, 1-[(2-Chlorophenyl)diphenylmethyl]-3-(trifluorormethyl)-1H-pyrazole], the dissociation constant (Kd) in series [1] is 2 µM. On the same count and under the same terms, the result for `Clc1ccc(C(Nc2nccs2)(c2ccccc2)c2ccccc2)cc1` [Compound T64, N-[(4-Chlorophenyl)diphenylmethyl]-N-(1,3-thiazol-2yl)amine] reads 20 µM; that for `Clc1ccc(C(Nc2ccncc2)(c2ccccc2)c2ccccc2)cc1` [Compound T70, N-[(4-Chlorophenyl)diphenylmethyl]-N-(4-pyridyl)amine], 11 µM. Turning to `NC(c1ccccc1)(c1ccccc1)c1ccccc1F` [Compound T47, (2-Fluorophenyl)diphenylmethyl amine], in series [1] (setting [2]), the Kd stood at 2 µM.

Regarding `C[n+]1ccc(C(O)(c2ccccc2)c2ccccc2)cc1` [Compound T8], the “Kd for block of IKCa1” value in series [1] (setting [3]) is recorded as “No effect at 10 μM”. As for `NC(=O)NC(c1ccccc1)(c1ccccc1)c1ccccc1Cl`, the melting point turned out to be 243 °C. For the compound `NC(c1ccccc1)(c1ccccc1)c1ccccc1C(F)(F)F` [Compound T82, (2-Trifluoromethylphenyl)-diphenylmethyl amine], in series [1] (setting [2]), the equilibrium dissociation constant (Kd) amounted to 2.5 µM. For `Clc1ccccc1C(Nc1ncccn1)(c1ccccc1)c1ccccc1` [Compound T68, N-[(2-Chlorophenyl)diphenylmethyl]-N-(2-pyrimidyl)amine], the equilibrium dissociation constant (Kd) in series [1] was determined as 0.9 µM. Take `NC(c1ccccc1)(c1ccccc1)c1ccc(F)cc1` [Compound T42, (4-Fluorophenyl)diphenylmethyl amine]: the equilibrium dissociation constant (Kd) in series [1] (setting [2]) turned out to be 5 µM. In the case of `FC(F)(F)c1ccccc1C(Nc1ncccn1)(c1ccccc1)c1ccccc1` [Compound T73, N-Diphenyl[2-(trifluoromethyl)phenyl]-methyl-N-(2-pyrimidinyl)amine], the dissociation constant Kd in series [1] was 15 µM. For the compound `CCOC(=O)C(C(=O)OCC)C(c1ccccc1)(c1ccccc1)c1ccccc1Cl` [Compound T77], the Kd in series [1] (setting [2]) turned out to be 0.8 µM.

Take `OC(c1ccccc1)(c1cccc(Cl)c1)c1cccc(Cl)c1` [Compound T5, Bis-(3-chlorophenyl)phenyl methanol]: the “Kd for block of IKCa1” value in series [1] (setting [3]) is recorded as “No effect at 1 μM”. `Clc1ccccc1C(Nc1ccccn1)(c1ccccc1)c1ccccc1` [Compound T69, N-[(2-Chlorophenyl)diphenylmethyl]-N-(2-pyridyl)amine]: the affinity in series [1], expressed as Kd, was 28 µM. Compound `Fc1ccc(C(c2ccccc2)(c2ccccc2)n2cccn2)cc1` [Compound T28, 1-[(4-Fluorophenyl)diphenylmethyl]-1H-pyrazole] returned a Kd in series [1] of 0.2 µM. The same measure, in the same setting: for `N#CC(c1ccccc1)(c1ccccc1)c1ccc(Cl)cc1` [Compound T26, 2-(4-Chlorophenyl)-2,2-diphenylacetonitrile] the value was 0.75 µM; for `OC(c1ccccc1)(c1cccs1)c1ccccc1Cl` (stereo not shown) [Compound T43, (2-Chlorophenyl)(2-thienyl)phenyl methanol], 0.75 µM. On to `C[n+]1ccn(C(c2ccccc2)(c2ccccc2)c2ccccc2Cl)c1` [Compound T30], for which the Kd in series [1] (setting [2]) was 10 µM. In series [1], `Cc1cc(C)n(C(c2ccccc2)(c2ccccc2)c2ccccc2Cl)n1` [Compound T62, 1-[(2-Chlorophenyl)diphenylmethyl]-3,5-dimethyl-1H-pyrazole] gave a Kd of 12 µM. On the same count and under the same terms, for `FC(F)(F)c1ccc(C(Nc2nccs2)(c2ccccc2)c2ccccc2)cc1` [Compound T61, N-Diphenyl[4-(trifluoromethyl)phenyl]-methyl-N-(1,3-thiazol-2-yl)amine] the value was 35 µM; for `O=[N+]([O-])c1ccc(S(=O)(=O)c2cnc(NC(c3ccccc3)(c3ccccc3)c3ccccc3Cl)s2)cc1` [Compound T81, N-{5-[(4-Nitrophenyl)sulfonyl]-1,3-thiazol-2yl}-N[(2-chlorophenyl)-(diphenyl)-methyl]amine], 15 µM; for `OC(c1ccccc1)(c1ccccc1)c1ccccc1C(F)(F)F` [Compound T54, Diphenyl(2-trifluoromethylphenyl) methanol], 0.7 µM. Take `NC(c1ccccc1)(c1ccccc1)c1ccccc1Cl` [Compound T41, (2-chlorophenyl)diphenylmethyl amine]: the dissociation constant Kd in series [1] (setting [2]) worked out at 5 µM. The compound `c1ccc(C(Nc2nccs2)(c2ccccc2)c2ccccc2)cc1` came in with a melting point of 213 °C.

`OC(c1ccccc1)(c1ccccc1)c1ccc(C(F)(F)F)cc1` [Compound T55, Diphenyl(4-trifluoromethylphenyl) methanol] showed a Kd in series [1] of 0.82 µM. Turning to `c1ccc(C(c2ccccc2)(c2ccccc2)n2ccnc2)cc1` [Compound T86], the Kd in series [1] (setting [2]) is 1.5 µM.

These data come from patent US7235577B1 (priority 2000, dated 2007).
